The source of these data is patent publication US12024499B2, “Muscarinic agonists” (Heptares Therapeutics Limited, priority 2015, dated 2024).

Holding throughout (assay type): cell-based
The target of test [1] is T1, human muscarinic M1 receptor (Homo sapiens, UniProt P11229).
T1 sequence (P11229 1-460): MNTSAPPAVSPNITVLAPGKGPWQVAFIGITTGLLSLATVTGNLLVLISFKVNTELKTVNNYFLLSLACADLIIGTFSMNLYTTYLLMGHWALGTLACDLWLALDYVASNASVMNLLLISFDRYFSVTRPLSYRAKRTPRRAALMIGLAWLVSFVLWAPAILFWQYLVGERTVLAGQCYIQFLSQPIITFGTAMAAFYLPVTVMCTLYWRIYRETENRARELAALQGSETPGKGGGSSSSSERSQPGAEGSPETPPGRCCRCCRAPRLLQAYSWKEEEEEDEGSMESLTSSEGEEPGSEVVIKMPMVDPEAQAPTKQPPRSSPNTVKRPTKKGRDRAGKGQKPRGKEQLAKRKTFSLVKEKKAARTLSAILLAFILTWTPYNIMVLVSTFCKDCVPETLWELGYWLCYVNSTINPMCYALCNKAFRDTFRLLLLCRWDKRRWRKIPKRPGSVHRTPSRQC
Kind of test: Alphascreen Surefire phospho-ERK1/2 assay, M1. To be noted: for EC50: CHO cells stably expressing human M1, agonist 5 min, 37° C., read-out: pEC50 M1 (converted); for Emax: CHO, read-out: % Emax cf. ACh, M1. The procedure:
(§1) ERK1/2 phosphorylation is a downstream consequence of both Gq/11 and Gi/o protein coupled receptor activation, making it highly suitable for the assessment of M1, M3 (Gq/11 coupled) and M2, M4 receptors (Gi/o coupled), rather than using different assay formats for different receptor subtypes. CHO cells stably expressing the human muscarinic M1, M2, M3 or M4 receptor were plated (25K/well) onto 96-well tissue culture plates in MEM-alpha+10% dialysed FBS. Once adhered, cells were serum-starved overnight. Agonist stimulation was performed by the addition of 5 μL agonist to the cells for 5 min (37° C.). Media was removed and 50 μL of lysis buffer added. After 15 min, a 4 μL sample was transferred to 384-well plate and 7 μL of detection mixture added. Plates were incubated for 2 h with gentle agitation in the dark and then read on a PHERAstar plate reader.
(§2) pEC50 and Emax figures were calculated from the resulting data for each receptor subtype.
Background: Bead proximity is the source of the signal in Alpha formats.

Test [2] deals with T2, human muscarinic M4 receptor (Homo sapiens, UniProt P08173).
T2 construct: expressed in transfected cells
T2 sequence (P08173 1-479): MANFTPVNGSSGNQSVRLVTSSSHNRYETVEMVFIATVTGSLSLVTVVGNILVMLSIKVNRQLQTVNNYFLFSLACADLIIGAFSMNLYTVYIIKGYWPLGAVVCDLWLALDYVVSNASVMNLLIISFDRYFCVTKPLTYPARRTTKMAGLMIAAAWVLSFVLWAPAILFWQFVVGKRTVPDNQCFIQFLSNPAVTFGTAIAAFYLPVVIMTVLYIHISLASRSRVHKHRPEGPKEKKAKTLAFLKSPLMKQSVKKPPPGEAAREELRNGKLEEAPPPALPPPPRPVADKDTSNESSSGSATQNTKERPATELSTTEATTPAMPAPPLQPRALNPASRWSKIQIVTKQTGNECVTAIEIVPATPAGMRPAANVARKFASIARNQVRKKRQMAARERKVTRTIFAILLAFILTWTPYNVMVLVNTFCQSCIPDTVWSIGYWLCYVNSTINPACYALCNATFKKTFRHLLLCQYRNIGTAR
Kind of test: Alphascreen Surefire phospho-ERK1/2 assay, M4. To be noted: for EC50: CHO cells stably expressing human M4, agonist 5 min, 37° C., read-out: pEC50 M4 (converted); for Emax: CHO, read-out: % Emax cf. ACh, M4. The procedure:
as §1, §2

Test [3] has as its target T3, human muscarinic M2 receptor (Homo sapiens, UniProt P08172).
T3 sequence (P08172 1-466): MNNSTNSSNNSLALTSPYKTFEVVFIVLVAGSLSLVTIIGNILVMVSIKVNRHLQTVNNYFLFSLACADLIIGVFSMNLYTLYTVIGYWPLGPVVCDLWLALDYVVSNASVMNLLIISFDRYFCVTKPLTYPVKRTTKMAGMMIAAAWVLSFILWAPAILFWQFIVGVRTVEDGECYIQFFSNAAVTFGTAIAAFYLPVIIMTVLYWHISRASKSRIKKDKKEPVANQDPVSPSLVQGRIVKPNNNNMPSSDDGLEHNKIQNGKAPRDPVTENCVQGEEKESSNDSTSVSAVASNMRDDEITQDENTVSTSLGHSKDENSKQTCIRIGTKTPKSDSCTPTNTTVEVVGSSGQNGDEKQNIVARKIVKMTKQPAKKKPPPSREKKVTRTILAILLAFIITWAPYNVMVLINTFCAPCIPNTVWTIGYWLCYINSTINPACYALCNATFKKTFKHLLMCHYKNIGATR
As to the kind of experiment: Alphascreen Surefire phospho-ERK1/2 assay, M2. To be noted: for EC50: CHO cells stably expressing human M2, agonist 5 min, 37° C., read-out: pEC50 M2 (converted); for Emax: CHO, read-out: % Emax cf. ACh, M2. The procedure:
as §1, §2

Test [4] has as its target T4, human muscarinic M3 receptor (Homo sapiens, UniProt P20309).
T4 construct: expressed in transfected cells
As to the kind of experiment: Alphascreen Surefire phospho-ERK1/2 assay, M3. Particulars: for EC50: CHO cells stably expressing human M3, agonist 5 min, 37° C., read-out: pEC50 M3 (converted); for Emax: CHO, read-out: % Emax cf. ACh, M3. The procedure: as §1, §2

Structures are written as SMILES.

T4 sequence (P20309 whole entry): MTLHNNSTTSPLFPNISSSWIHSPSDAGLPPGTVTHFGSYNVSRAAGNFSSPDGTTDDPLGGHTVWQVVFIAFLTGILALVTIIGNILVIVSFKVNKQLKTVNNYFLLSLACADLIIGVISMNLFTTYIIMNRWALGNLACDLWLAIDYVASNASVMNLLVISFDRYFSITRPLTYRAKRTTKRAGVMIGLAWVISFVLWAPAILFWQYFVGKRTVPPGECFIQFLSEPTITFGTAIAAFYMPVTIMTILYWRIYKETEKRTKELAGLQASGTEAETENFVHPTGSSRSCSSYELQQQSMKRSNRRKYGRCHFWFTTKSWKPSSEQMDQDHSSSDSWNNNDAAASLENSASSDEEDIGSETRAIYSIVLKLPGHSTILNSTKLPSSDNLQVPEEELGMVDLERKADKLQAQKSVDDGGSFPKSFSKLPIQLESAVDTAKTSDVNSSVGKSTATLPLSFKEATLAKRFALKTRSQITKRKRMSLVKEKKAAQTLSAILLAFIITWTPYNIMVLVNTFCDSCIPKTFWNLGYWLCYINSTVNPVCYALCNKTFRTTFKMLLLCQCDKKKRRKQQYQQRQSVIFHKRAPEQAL

With `CCOC(=O)N1CCC2(CC(N3CCC(N4CC(F)(F)C4)CC3)C2)C1` (single isomer, unassigned) [Example 1-1, Ethyl 2-[4-(3,3-difluoroazetidin-1-yl)piperidin-1-yl]-6-azaspiro[3.4]octane-6-carboxylate], the EC50 is 1000 nM in test [1] and 158 nM in test [2]. In addition, the maximal response (Emax) stood at 24% in test [1] and 26% in test [2].

Regarding `CCOC(=O)N1CCC2(CC(N3CCC(N4CC[C@@H]4C(=O)OC)CC3)C2)C1` (single isomer, unassigned) [Example 1-2], the EC50 in test [1] was > 20000 nM; in test [2], 63.1 nM; in test [3] it was > 20000 nM; in test [4], > 20000 nM. In addition, the Emax amounted to 37% in test [1], 67% in test [2], 7% in test [3] and 7% in test [4].

`CCOC(=O)N1CCC2(CC(N3CCC(N4CCC4=O)CC3)C2)C1` (single isomer, unassigned) [Example 1-3, Ethyl 2-[4-(2-oxoazetidin-1-yl)piperidin-1-yl]-6-azaspiro[3.4]octane-6-carboxylate]: in test [1], the EC50 was > 20000 nM and the Emax is 20%. Moreover, in test [2], the EC50 was 200 nM and the Emax was found to be 23%.

Turning to `CCOC(=O)N1CCC2(CC(N3CCC(N4C(=O)C[C@@H]4C)CC3)C2)C1` (single isomer, unassigned) [Example 1-4], in test [1], the EC50 was > 20000 nM and the maximal effect (Emax) was 18%. Moreover, in test [2], the EC50 is 158 nM and the Emax was found to be 41%.

Regarding `CCOC(=O)N1CCC2(CC(N3CCC(N4C(=O)C[C@@H]4CC)CC3)C2)C1` (single isomer, unassigned) [Example 1-5], the EC50 in test [1] was 316 nM; in test [2] it was 100 nM; in test [3], > 20000 nM; in test [4] it was > 20000 nM. Also, the Emax in test [1] is 69%; in test [2], 56%; in test [3], 37%; in test [4], 0%.

As to `CCOC(=O)N1CCC2(CC(N3CCC(N4C(=O)C[C@H]4C)CC3)C2)C1` (single isomer, unassigned) [Example 1-6], the EC50 in test [1] was > 20000 nM; in test [2], 251 nM. The Emax in test [1] is 13%; in test [2], 74%.

Turning to `CCOC(=O)N1CCC2(CC(N3CCC(N4C(=O)C[C@H]4CC)CC3)C2)C1` (single isomer, unassigned) [Example 1-7], the EC50 is 794 nM in test [1], 79.4 nM in test [2], 501 nM in test [3] and > 20000 nM in test [4]. Further, the Emax in test [1] worked out at 94%; in test [2], 101%; in test [3] it was 26%; in test [4] it was 21%.

One may read the Emax as the size of the effect at its maximum, as opposed to the concentration needed.
